Laboratory results reported in US12656344B2, “CTL peptide epitopes and antigen-specific T cells, methods for their discovery, and uses thereof” (Oslo universitetssykehus HF, priority 2013, dated 2026).
Where no end group is shown, it is not given here.

Experiments:
[1] = tested on: primary T cells transduced with a MART-1 specific TCR; test: Binding of alanine-replaced peptide #25 multimers to MART-1 TCR transduced T cells; format: cell-based, human; settings: specificity control for alanine-replaced multimers
[2] = tested on: T cell clones reactive to MPO peptide #25; test: Binding of HLA-A2 multimers with alanine-substituted MPO peptide #25 to T cell clones; format: cell-based, human; settings: PE-conjugated multimers; 3 T cell clones from CTL line #25; flow cytometry
Protocol: FIG. 6A-C. […] (A) Assays were performed as described in FIG. 2, except that only degranulation responses were measured. […] (B) Three of the clones shown in (A) were examined for binding of PE-conjugated HLA-A2 multimers containing the #25 peptide with and without an alanine substitution in each position, using flow cytometry.
To obtain more information on the range of T cell reactivities to one of these novel T cell epitopes, T-cell clones were generated from CTL line #25, specific for MPO epitope […] (SEQ ID NO:45).

For “P506A: MPO peptide #25 (LIQPFMFRL) with an alanine-replacement in position 4, in HLA-A2 multimer (LIQAFMFRL; also: in HLA-A2 multimer) [Peptide P506A]”, the “Multimer binding to primary T cells transduced with a MART-1 specific TCR” value [1] was “bound non-specifically” and the “HLA-A2 multimer binding of alanine-substituted #25 peptide relative to WT peptide” value [2] was “higher binding”.
